# Laboratory results from PubChem BioAssay (NCI).
# Where “and” joins values, the source holds several entries; their conditions need not be identical. Equal values may be shown once.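 These data come from cells grown in 96-well plates and exposed to compound for 48 hours at five concentrations. Abbreviation: GI50, concentration required for 50% inhibition of growth. Definition used: TGI = concentration required for complete inhibition of growth.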
# Tests used:
# Test in all cases: NCI tumour cell line growth inhibition, 48 h
# HOP-18 NSCLC = system: HOP-18 NSCLC
# A498 renal = system: A498 renal
# UO-31 renal = system: UO-31 renal
# KM12 colon = system: KM12 colon
# OVCAR-5 ovarian = system: OVCAR-5 ovarian
# XF 498 CNS = system: XF 498 CNS
# CAKI-1 renal = system: CAKI-1 renal
# CCRF-CEM leukemia = system: CCRF-CEM leukemia
# A549 NSCLC = system: A549 NSCLC
# HOP-92 NSCLC = system: HOP-92 NSCLC
# ACHN renal = system: ACHN renal
# NCI-H460 lung = system: NCI-H460 lung
# SK-MEL-28 melanoma = system: SK-MEL-28 melanoma
# HOP-62 NSCLC = system: HOP-62 NSCLC
# HCT-116 colon = system: HCT-116 colon
# HS 578T breast = system: HS 578T breast
# SNB-78 CNS = system: SNB-78 CNS
# SR leukemia = system: SR leukemia
# DMS 273 small cell lung = system: DMS 273 small cell lung
# HT29 colon = system: HT29 colon
# NCI-H522 lung = system: NCI-H522 lung
# SW-620 colon = system: SW-620 colon
# MOLT-4 leukemia = system: MOLT-4 leukemia
# OVCAR-4 ovarian = system: OVCAR-4 ovarian
# P388/ADR leukemia = system: P388/ADR leukemia
# UACC-62 melanoma = system: UACC-62 melanoma
# MDA-N = system: MDA-N
# NCI-H23 lung = system: NCI-H23 lung
# TK-10 renal = system: TK-10 renal
# DLD-1 colon = system: DLD-1 colon
# OVCAR-8 ovarian = system: OVCAR-8 ovarian
# SNB-75 CNS = system: SNB-75 CNS
# K-562 leukemia = system: K-562 leukemia
# P388 leukemia = system: P388 leukemia
# HCT-15 colon = system: HCT-15 colon
# SF-295 CNS = system: SF-295 CNS
# HCC-2998 colon = system: HCC-2998 colon
# SN12C renal = system: SN12C renal
# 786-0 renal = system: 786-0 renal
# KM20L2 colon = system: KM20L2 colon
# SK-MEL-5 melanoma = system: SK-MEL-5 melanoma
# MCF7 breast = system: MCF7 breast
# M14 melanoma = system: M14 melanoma
# LOX IMVI melanoma = system: LOX IMVI melanoma
# U251 CNS = system: U251 CNS
# SK-OV-3 ovarian = system: SK-OV-3 ovarian
# IGROV1 ovarian = system: IGROV1 ovarian
# RXF 393 renal = system: RXF 393 renal
# RPMI-8226 leukemia = system: RPMI-8226 leukemia
# SN12K1 renal = system: SN12K1 renal
# M19-MEL melanoma = system: M19-MEL melanoma
# SF-268 CNS = system: SF-268 CNS
# MDA-MB-231 breast = system: MDA-MB-231 breast
# NCI/ADR-RES ovarian = system: NCI/ADR-RES ovarian
# HL-60(TB) leukemia = system: HL-60(TB) leukemia
compound,measurement,setting,value
N#Cc1cn(C2OC(CO)C(O)C2O)c2ncnc(N)c12 (stereo not drawn),GI50,HOP-18 NSCLC,55.7 nM
same,GI50,A498 renal,45 nM
same,TGI,A498 renal,1510 nM and 634 nM
same,GI50,UO-31 renal,65.8 nM and 45.9 nM and 27.1 nM
same,TGI,UO-31 renal,665 nM and 819 nM and 1980 nM
same,TGI,KM12 colon,> 100000 nM
same,GI50,OVCAR-5 ovarian,238 nM
same,GI50,XF 498 CNS,45 nM
same,TGI,XF 498 CNS,13 nM and 66.3 nM
same,GI50,CAKI-1 renal,70.5 nM and 45 nM and < 10 nM
same,GI50,CCRF-CEM leukemia,45 nM
same,TGI,CCRF-CEM leukemia,216 nM and 840 nM and 96.1 nM
same,GI50,A549 NSCLC,< 10 nM
same,TGI,A549 NSCLC,> 450000 nM
same,GI50,HOP-92 NSCLC,0.461 nM
same,TGI,HOP-92 NSCLC,665 nM and 182 nM
same,GI50,ACHN renal,< 10 nM
same,TGI,ACHN renal,20 nM
same,GI50,NCI-H460 lung,< 14.1 nM
same,GI50,SK-MEL-28 melanoma,32.9 nM
same,GI50,HOP-62 NSCLC,53.3 nM
same,GI50,HCT-116 colon,26.4 nM and < 10 nM
same,TGI,HCT-116 colon,> 100000 nM
same,TGI,HS 578T breast,1330 nM
same,GI50,SNB-78 CNS,73.6 nM
same,TGI,SNB-78 CNS,> 450000 nM
same,TGI,SR leukemia,> 100000 nM
same,TGI,DMS 273 small cell lung,390 nM and 70 nM
same,GI50,HT29 colon,< 10 nM
same,GI50,NCI-H522 lung,29.3 nM
same,GI50,SW-620 colon,< 14.5 nM
same,TGI,SW-620 colon,> 100000 nM
same,GI50,MOLT-4 leukemia,45 nM and 31.9 nM
same,GI50,OVCAR-4 ovarian,28.2 nM and 11.7 nM
same,GI50,P388/ADR leukemia,12.7 nM and 45 nM
same,GI50,UACC-62 melanoma,< 13.6 nM
same,TGI,UACC-62 melanoma,156 nM and 60.3 nM and 115 nM
same,GI50,MDA-N,28.1 nM
same,GI50,NCI-H23 lung,25.6 nM
same,GI50,TK-10 renal,0.405 nM
same,TGI,TK-10 renal,77.1 nM
same,GI50,DLD-1 colon,27.7 nM
same,TGI,DLD-1 colon,> 272000 nM
same,GI50,OVCAR-8 ovarian,46.9 nM and 45 nM
same,TGI,OVCAR-8 ovarian,889 nM and 178 nM
same,GI50,SNB-75 CNS,232 nM
same,GI50,K-562 leukemia,17.5 nM
same,GI50,P388 leukemia,5.28 nM and 45 nM
same,TGI,P388 leukemia,137 nM and 46.3 nM
same,GI50,HCT-15 colon,< 11.7 nM
same,GI50,SF-295 CNS,< 19.3 nM
same,GI50,HCC-2998 colon,60.9 nM and 75.8 nM and < 24.9 nM
same,GI50,SN12C renal,< 11.9 nM
same,TGI,786-0 renal,> 100000 nM
same,GI50,KM20L2 colon,4.5 nM
same,TGI,KM20L2 colon,3420 nM and 12000 nM
same,GI50,SK-MEL-5 melanoma,41.6 nM
same,TGI,SK-MEL-5 melanoma,109 nM
same,GI50,MCF7 breast,25.1 nM and 45 nM and < 16.9 nM
same,TGI,M14 melanoma,21900 nM
same,GI50,LOX IMVI melanoma,< 10 nM
same,GI50,U251 CNS,27.6 nM
same,GI50,SK-OV-3 ovarian,108 nM
same,GI50,IGROV1 ovarian,26.6 nM
same,GI50,RXF 393 renal,16.1 nM
same,TGI,RXF 393 renal,95.8 nM and 70.8 nM
same,GI50,RPMI-8226 leukemia,30.3 nM and 45 nM and < 10 nM
same,TGI,SN12K1 renal,3130 nM
same,TGI,M19-MEL melanoma,1560 nM and 7690 nM
same,GI50,SF-268 CNS,< 10 nM
same,TGI,MDA-MB-231 breast,> 100000 nM
same,GI50,NCI/ADR-RES ovarian,45.9 nM
same,GI50,HL-60(TB) leukemia,45 nM
